Literature values as cited in patent publication US11559519B2, “Tizanidine therapy system” (MEDRx Co., Ltd., priority 2018, dated 2023).

Conditions: multiple dose, placebo-controlled clinical studies

Compound: Clc1ccc2nsnc2c1NC1=NCCN1 [tizanidine]
- sedation rated as severe: 10%
- patients who reported sedation as an adverse event (patients receiving any dose): 48%
